In paper PMC12067741, “Inhibition of SOD1 trimerization is a novel drug target for ALS disease” (Translational Neurodegeneration, 2025):
pIC50: −log10 of the molar value.

Columns and labels:
[1] = system: MT-SOD1 recombinant protein; assay: In vitro oligomerization of recombinant GST-SOD1 (non-denaturing); format: biochemical; conditions: GST-SOD1 4 μg/mL, PRG-A-04 10 μmol/L, 30 min, room temperature
Description: For detecting the oligomerization assay promoted by mutant-type (MT)-SOD1 recombinant proteins in vitro, GST-SOD1 recombinant protein (4 μg/mL) was incubated with PRG-A-04 (10 μmol/L) for 30 min at room temperature in PBS and the samples were mixed with non-denaturing sample buffer. Those were separated in SDS-PAGE gel without boiling.

SOD1^G93A−Tg mice [2] = assay: Efficacy of i.p. injection in SOD1G93A-Tg ALS mice; format: in vivo; conditions: for reduction of rotarod latency to fall at 16 weeks compared to 11 weeks: vehicle ~43%
Description: To evaluate the therapeutic effect of PRG-A-04, SOD1^G93A−Tg mice received intraperitoneal injection of vehicle (DMSO, n = 6) or PRG-A-04 (20 mg/kg, n = 4; 50 mg/kg, n = 6) twice per week from 11 weeks for 6–8 weeks. WT mice (n = 5) served as negative littermates of the SOD1^G93A−Tg mice. WT mice were treated in the same conditions.
For histology analysis, SOD1^G93A−Tg mice received intraperitoneal injections starting from 11 weeks and sacrificed at 17 weeks (vehicle, n = 3; PRG-A-04 20 mg/kg, n = 2, 50 mg/kg, n = 2) and 19 weeks (vehicle, n = 2; PRG-A-04 50 mg/kg, n = 2). WT male mice (n = 5) were sacrificed at 17 weeks. Mice were sacrificed by i.p. (intraperitoneal) injection of avertin at a volume of 150–200 μL. The spinal cord was obtained and fixed in 4% paraformaldehyde for 48 h and embedded in paraffin blocks. The embedded tissues (cervical region of the spinal cord) were sectioned at 5 µm by Accu-Cut ® SRMTM 200 Rotary Microtome (Sakura Finetek, Torrance, CA) and transferred onto adhesive-coated slides (Marienfeld Laboratory Glassware, Lauda-Königshofen, Germany). After deparaffin and rehydration, the slides were stained with hematoxylin and eosin (H&E) to detect spinal cord neurons. In addition, immunohistochemistry (IHC) with antibodies for neuronal markers MAP2 (ab32454, Abcam, Cambridge, UK) and NeuN (ab177487, Abcam) as well as for SOD1 (GTX100554, Genetex, Irvine, CA) was performed. The intensity of MAP2 and NeuN was calculated with the Image J software (version 1.54p, National Institute of Mental Health, MD). For counting intensity, IHC images were divided using the “color deconvolution” function in Image J software and the DAB signal was quantified.
Age-matched WT mice were tested as positive control. […] Mouse movement was recorded.
PRG-A-04 (20 mg/kg or 50 mg/kg) was injected intraperitoneally (i.p., twice a week) in 11-week-old SOD1^G93A−Tg mice to verify its efficacy in vivo (Fig. S4a). […] We performed the rotarod test to monitor muscle strength.
11 weeks old mice were injected with 20 mg/kg and 50 mg/kg, twice per week for 6~8 weeks and checked the motility with rotarod test. To check the histology analysis, some mouse groups were sacrificed and the spinal cord was isolated at 16 weeks and 18 weeks. b, […]
(d) The 11 weeks old mice were injected with PRG-A-04 for 6 weeks and sacrificed at 16 weeks. The cervical spinal cord was stained with H&E. Scale bar; […]. (e) Representative images […]
The tissue lysates were harvest with TNNI buffer and incubation for 30 min then fixed with 0.04% glutaraldehyde (Glu) for 30min. Samples were separated using SDS-PAGE. Arrow indicates human SOD1(hSOD1- […]
MAP2 (e) and the number of NeuN positive cells (f) were counted with Image J software.

CYP 2B6 = CYP 2B6 (Homo sapiens, UniProt P20813)
Text: (§1) Fig. S8. Preclinical data of PRG-A-04 a Plasma protein binding b CYP inhibition(direct) […]
(§2) d Mouse Brain Tissue penetration
(§3) For the convenience of calculation, […]

CYP 2C8 = CYP 2C8 (Homo sapiens, UniProt P10632)
Text: as §1, §2, §3

CYP 2D6 = CYP 2D6 (Homo sapiens, UniProt P10635)
Text: as §1, §2, §3

CYP 2C9 = CYP 2C9 (Homo sapiens, UniProt P11712)
Text: as §1, §2, §3

[3] = Metabolic stability in liver microsomes; format: in vitro ADME; conditions: human liver microsomes
SOD1^G93A−Tg mice [4] = assay: Efficacy of oral (p.o., ASD) administration in SOD1G93A-Tg ALS mice
Description: For mice with p.o. injection, the mice were trained for 2 weeks from the age of 7 weeks, and the rotarod test was performed from 9 weeks. Age-matched WT mice were tested as positive control. […] Mouse movement was recorded. The recorded video file was further analyzed using the EthoVision XT 15 software (Noldus, Wageningen, Netherlands).

misfolded MT-SOD1 = assay: Dot blot with misfolded SOD1-specific antibody; format: cell-based; conditions: 24 h treatment
Description: To detect misfolded SOD1 expression, cells transfected with SOD1 vectors were treated with PRG-A-04 for 24 h. After incubation, cells were lysed with […] NN buffer (50 mmol/L Tris–Cl, pH 7.5, 150 mmol/L NaCl, 0.3% NP-40), and then cell lysates were immobilized on nitrocellulose membrane using the Bio-Dot SF Microfiltration apparatus (Bio-Rad Laboratories, Hercules, CA). The membrane was washed with TBS and blocked by 5% BSA to remove background for 1 h. After blocking, the membrane was incubated with antibody for misfolded SOD1 (1:2000) or actin (1:10,000 in 1% skim milk containing TBST) for 30 min, then reacted with secondary antibody (goat anti-mouse IgG-horseradish peroxidase, 1:50,000 in 1% skim milk blocking buffer) for 30 min. Proteins were detected with ECL and X-ray film exposure. Actin was used as the loading control.

[5] = BBB-PAMPA (parallel artificial membrane permeability assay); conditions: PAMPA, 4 hour, 10 µM
Text: Next, we checked the basic in vitro ADME test including pharmacokinetics, plasma protein binding, CYP (Cytochrome P450) inhibition, metabolic stability and blood–brain barrier (BBB) permeability. […] We also plan to test safety panel assay in the future to obtain safety data for the drug.
Fig. S8. […]

Sequence of CYP 2D6 (P10635 whole entry): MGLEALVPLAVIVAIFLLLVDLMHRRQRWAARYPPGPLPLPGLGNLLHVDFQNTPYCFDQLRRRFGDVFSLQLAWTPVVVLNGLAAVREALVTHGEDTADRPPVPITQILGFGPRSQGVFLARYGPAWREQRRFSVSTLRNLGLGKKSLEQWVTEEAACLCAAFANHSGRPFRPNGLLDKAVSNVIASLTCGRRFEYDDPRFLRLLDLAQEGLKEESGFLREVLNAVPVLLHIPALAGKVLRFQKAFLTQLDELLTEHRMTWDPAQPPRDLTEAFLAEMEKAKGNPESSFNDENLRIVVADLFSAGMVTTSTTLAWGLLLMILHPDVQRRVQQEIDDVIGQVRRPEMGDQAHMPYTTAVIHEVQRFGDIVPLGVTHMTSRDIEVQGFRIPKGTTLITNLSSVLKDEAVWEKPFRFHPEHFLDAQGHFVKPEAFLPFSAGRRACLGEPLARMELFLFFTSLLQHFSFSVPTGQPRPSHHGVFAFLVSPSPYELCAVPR
Sequence of CYP 2C8 (P10632 whole entry): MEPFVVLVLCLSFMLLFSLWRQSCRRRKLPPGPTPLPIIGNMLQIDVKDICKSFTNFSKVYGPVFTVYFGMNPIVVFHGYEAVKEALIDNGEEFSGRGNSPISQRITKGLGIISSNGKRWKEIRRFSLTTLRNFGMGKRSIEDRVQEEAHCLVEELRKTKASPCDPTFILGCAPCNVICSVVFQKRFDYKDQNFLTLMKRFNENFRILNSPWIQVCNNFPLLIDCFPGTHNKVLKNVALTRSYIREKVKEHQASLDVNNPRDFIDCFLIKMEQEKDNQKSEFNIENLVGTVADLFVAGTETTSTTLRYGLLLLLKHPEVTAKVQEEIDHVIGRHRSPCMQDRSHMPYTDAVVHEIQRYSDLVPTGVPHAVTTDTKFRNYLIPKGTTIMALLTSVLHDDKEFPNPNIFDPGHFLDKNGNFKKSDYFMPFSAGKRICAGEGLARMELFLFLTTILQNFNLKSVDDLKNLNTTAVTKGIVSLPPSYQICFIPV
Sequence of CYP 2C9 (P11712 whole entry): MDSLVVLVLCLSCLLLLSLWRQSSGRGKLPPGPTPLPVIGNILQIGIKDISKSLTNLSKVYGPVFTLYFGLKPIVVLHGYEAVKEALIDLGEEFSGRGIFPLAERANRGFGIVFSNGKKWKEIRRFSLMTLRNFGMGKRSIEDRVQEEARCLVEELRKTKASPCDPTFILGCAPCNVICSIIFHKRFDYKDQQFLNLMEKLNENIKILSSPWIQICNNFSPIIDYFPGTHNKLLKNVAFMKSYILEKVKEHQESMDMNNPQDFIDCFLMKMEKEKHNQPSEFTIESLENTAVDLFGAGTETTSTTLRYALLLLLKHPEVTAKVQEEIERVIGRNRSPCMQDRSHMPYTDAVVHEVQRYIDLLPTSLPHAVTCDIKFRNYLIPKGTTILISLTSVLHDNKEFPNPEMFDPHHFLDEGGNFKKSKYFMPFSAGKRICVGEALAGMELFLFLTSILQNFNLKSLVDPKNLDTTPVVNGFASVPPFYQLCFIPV
Sequence of CYP 2B6 (P20813 whole entry): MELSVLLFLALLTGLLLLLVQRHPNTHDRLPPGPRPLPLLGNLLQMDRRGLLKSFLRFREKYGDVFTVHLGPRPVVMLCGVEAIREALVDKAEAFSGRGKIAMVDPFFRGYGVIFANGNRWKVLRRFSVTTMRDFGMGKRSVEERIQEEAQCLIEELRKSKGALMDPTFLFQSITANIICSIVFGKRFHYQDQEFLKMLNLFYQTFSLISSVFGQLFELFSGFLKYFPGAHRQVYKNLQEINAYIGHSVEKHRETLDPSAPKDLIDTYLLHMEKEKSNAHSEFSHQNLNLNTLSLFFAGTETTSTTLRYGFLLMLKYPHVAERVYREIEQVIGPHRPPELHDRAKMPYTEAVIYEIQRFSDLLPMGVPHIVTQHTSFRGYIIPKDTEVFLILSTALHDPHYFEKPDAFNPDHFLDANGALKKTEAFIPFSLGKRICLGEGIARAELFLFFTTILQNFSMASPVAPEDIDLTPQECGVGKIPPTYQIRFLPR

COc1cc(C=CCOC2Cc3cc4ccc(=O)oc4cc3OC2(C)C)ccc1[N+](=O)[O-] (stereo not drawn) [PRG-A-04]
effect on oligomerization of recombinant MT-SOD1 in vitro [1]: inhibited the oligomerizing or aggregation property of MT-SOD1
reduction of rotarod latency to fall at 16 weeks compared to 11 weeks (SOD1^G93A−Tg mice [2]; i.p. 20 mg/kg twice a week from 11 weeks (first of 'respectively')): 14.4%
reduction of rotarod latency to fall at 16 weeks compared to 11 weeks (SOD1^G93A−Tg mice [2]; i.p. 50 mg/kg twice a week from 11 weeks (second of 'respectively')): 20.1%
motor function in open field test (SOD1^G93A−Tg mice [2]; i.p. 50 mg/kg, age of 18 weeks): significantly improved motor function
SOD1 inclusion bodies in spinal cord (SOD1^G93A−Tg mice [2]; i.p. 20 and 50 mg/kg, immunohistochemistry): reduced SOD1 inclusion bodies
toxicity regarding body weight loss (SOD1^G93A−Tg mice [2]; i.p. 20 or 50 mg/kg twice a week): no cytotoxicity regarding body weight loss
number of neurons in cervical region of the spinal cord (SOD1^G93A−Tg mice [2]; i.p., histology at 16 weeks, versus vehicle): increased the number of neurons
insolubility and oligomerization of SOD1 in spinal cord (SOD1^G93A−Tg mice [2]; i.p., western blotting of cervical spinal cord lysates): decrease of insolubility and oligomerization of SOD1
pIC50 (CYP 2B6): < 5.00
pIC50 (CYP 2C8): < 5.00
pIC50 (CYP 2D6): < 5.00
pIC50 (CYP 2C9): < 5.00
extent of metabolism in liver microsomes [3]: moderately metabolized
extension of lifespan of ALS mice (SOD1^G93A−Tg mice [4]; oral administration): up to 3 weeks
toxicity on oral administration (SOD1^G93A−Tg mice [4]; p.o. twice a week from 9 weeks): without toxicity
reduction of movement (rotarod latency) at 17 weeks (SOD1^G93A−Tg mice [4]; p.o. twice a week from 9 weeks, dose not stated, vehicle about 73%): 45%
effect on misfolding SOD1 (misfolded MT-SOD1): reduction in misfolding SOD1
Mean Pe [5]: 0.418 ×10⁻⁶ cm/s
